Reference: patent US11332459B2 (TEIJIN PHARMA LIMITED, priority 2017, dated 2022)
Where a name gives a salt, the structure may show the parent alone.

molecular target: T1, human TRPC6 (Homo sapiens, UniProt Q9Y210); experiment: TRPC6 calcium flux assay (FLIPR, OAG-stimulated calcium influx); format: cell-based; conditions: HEK293 cells stably transfected with human TRPC6, read-out: hTRPC6 Potency
T1 construct: expressed in transfected cells
T1 sequence (Q9Y210 1-931): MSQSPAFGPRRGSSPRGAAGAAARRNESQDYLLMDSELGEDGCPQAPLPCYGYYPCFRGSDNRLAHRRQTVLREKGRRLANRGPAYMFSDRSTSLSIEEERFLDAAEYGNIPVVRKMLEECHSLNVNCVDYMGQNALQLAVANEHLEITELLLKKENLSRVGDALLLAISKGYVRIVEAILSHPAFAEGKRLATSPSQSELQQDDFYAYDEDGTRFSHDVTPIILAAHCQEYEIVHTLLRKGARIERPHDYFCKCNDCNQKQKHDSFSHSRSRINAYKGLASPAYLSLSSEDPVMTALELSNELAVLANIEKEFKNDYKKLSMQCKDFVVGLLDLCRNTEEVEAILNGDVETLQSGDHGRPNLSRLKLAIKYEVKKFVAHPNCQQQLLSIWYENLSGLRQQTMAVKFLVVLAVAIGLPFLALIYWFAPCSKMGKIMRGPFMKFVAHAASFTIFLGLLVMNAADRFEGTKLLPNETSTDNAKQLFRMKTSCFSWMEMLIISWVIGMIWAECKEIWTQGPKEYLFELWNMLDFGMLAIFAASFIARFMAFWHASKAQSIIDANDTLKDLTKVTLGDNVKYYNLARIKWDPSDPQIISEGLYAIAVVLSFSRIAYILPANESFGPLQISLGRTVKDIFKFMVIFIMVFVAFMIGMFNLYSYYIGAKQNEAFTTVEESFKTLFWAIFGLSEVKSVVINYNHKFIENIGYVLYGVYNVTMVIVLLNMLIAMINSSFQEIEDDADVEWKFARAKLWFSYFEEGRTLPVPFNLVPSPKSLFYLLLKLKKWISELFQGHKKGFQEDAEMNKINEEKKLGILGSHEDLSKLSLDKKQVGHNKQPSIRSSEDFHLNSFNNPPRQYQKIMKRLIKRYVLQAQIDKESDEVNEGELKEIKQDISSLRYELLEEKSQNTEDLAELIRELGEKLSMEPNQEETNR
Procedure, shortened: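 HEK293 cells stably expressing human TRPC6, loaded with calcium dye 90–120 min at RT, then given compound for 25 min before OAG (50 uM final, 0.5% DMSO) in HEPES buffer pH 7.2 with 2 mM CaCl2. Background-subtracted FLIPR peak over 180 s normalized to OAG vs buffer; IC50 from dose plot.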

Compound | IC50
Cc1cc2nc(N3CC[C@@H](F)[C@H](N)C3)n(Cc3ccc(C#N)cn3)c2cc1Cl [Example 112, 6-((2-((3R,4R)-3-amino-4-fluoro-1-piperidinyl)-6-chloro-5-methyl-1H-benzimidazol-1-yl)methyl)-3-pyridinecarbonitrile] | 0.281 nM
N#Cc1cnc(Cn2c(N3CC[C@@H](F)[C@H](N)C3)nc3ccc(F)cc32)nc1 [Example 442, 2-((2-((3R,4R)-3-amino-4-fluoropiperidin-1-yl)-6-fluoro-1H-benzo[d]imidazol-1-yl)methyl)pyrimidine-5-carbonitrile] | 0.319 nM
CC1(C)COCCN1C(=O)Cn1c(N2CC[C@@H](F)[C@H](N)C2)nc2ccc(F)cc21 [Example 687, 2-(2-((3R,4R)-3-amino-4-fluoropiperidin-1-yl)-6-fluoro-1H-benzo[d]imidazol-1-yl)-1-(3,3-dimethylmorpholino)ethan-1-one] | 2080 nM
N[C@@H]1CN(c2nc3cc(F)cc(F)c3n2Cc2ccc(F)cn2)CC[C@H]1F [Example 32, (3R,4R)-1-(5,7-difluoro-1-((5-fluoropyridin-2-yl)methyl)-1H-benzo[d]imidazol-2-yl)-4-fluoropiperidin-3-amine] | 47.2 nM
N#Cc1ccc(Cn2c(N3CCC(F)(F)[C@H](N)C3)nc3ccc(F)cc32)nc1 [Example 88, (R)-6-((2-(3-amino-4,4-difluoropiperidin-1-yl)-6-fluoro-1H-benzo[d]imidazol-1-yl)methyl)nicotinonitrile] | 0.643 nM
N[C@@H]1CN(c2nc3cc(F)c(F)cc3n2Cc2ccc(Cl)cc2F)CC[C@H]1F [Example 358, (3R,4R)-1-(1-(4-chloro-2-fluorobenzyl)-5,6-difluoro-1H-benzimidazol-2-yl)-4-fluoro-3-piperidinamine] | 6.47 nM
N[C@@H]1CN(c2nc3cc(F)c(F)cc3n2CC(=O)N2CCC(C(=O)N3CCCC3)CC2)CC[C@H]1F [Example 529, 2-(2-((3R,4R)-3-amino-4-fluoropiperidin-1-yl)-5,6-difluoro-1H-benzo[d]imidazol-1-yl)-1-(4-(pyrrolidine-1-carbonyl)piperidin-1-yl)ethan-1-one] | > 1750 nM
COc1cc(F)cc2c1nc(N1CC[C@@H](F)[C@H](N)C1)n2Cc1ccc(C#N)cn1 [Example 452, 6-((2-((3R,4R)-3-amino-4-fluoropiperidin-1-yl)-6-fluoro-4-methoxy-1H-benzo[d]imidazol-1-yl)methyl)nicotinonitrile] | 1.17 nM
N#Cc1ccc(Cn2c(N3CC[C@@H](CN)C3)nc3ccccc32)cc1 [Example 178, (S)-4-((2-(3-(aminomethyl)pyrrolidin-1-yl)-1H-benzo[d]imidazol-1-yl)methyl)benzonitrile] | 47.1 nM
N#Cc1ccc(Cn2c(N3CCC[C@@H](N)C3)nc3ccccc32)c(F)c1 [Example 383, (R)-4-((2-(3-aminopiperidin-1-yl)-1H-benzo[d]imidazol-1-yl)methyl)-3-fluorobenzonitrile] | 319 nM
C[C@@H](NC(=O)Cn1c(N2CC[C@@H](F)[C@H](N)C2)nc2ccc(F)cc21)c1ccccn1 [Example 674, 2-(2-((3R,4R)-3-amino-4-fluoropiperidin-1-yl)-6-fluoro-1H-benzo[d]imidazol-1-yl)-N-((R)-1-(pyridin-2-yl)ethyl)acetamide] | > 1750 nM
COc1ccc2nc(N3CC[C@@H](F)[C@H](N)C3)n(Cc3ccc(C#N)cn3)c2c1 [Example 146, 6-((2-((3R,4R)-3-amino-4-fluoropiperidin-1-yl)-6-methoxy-1H-benzo[d]imidazol-1-yl)methyl)nicotinonitrile hydrochloride] | 0.631 nM
CN[C@H]1CCCN(c2nc3ccccc3n2[C@H](C)c2ccc(C#N)cn2)C1 [Example 255, 6-((1R)-1-(2-((3S)-3-(methylamino)-1-piperidinyl)-1H-benzimidazol-1-yl)ethyl)-3-pyridinecarbonitrile] | 101 nM
CN(CC(F)(F)F)C(=O)Cn1c(N2CC[C@@H](F)[C@H](N)C2)nc2ccc(F)cc21 [Example 445, 2-(2-((3R,4R)-3-amino-4-fluoropiperidin-1-yl)-6-fluoro-1H-benzo[d]imidazol-1-yl)-N-methyl-N-(2,2,2-trifluoroethyl)acetamide] | 20.8 nM
CN(C(=O)Cn1c(N2CC[C@@H](F)[C@H](N)C2)nc2cc(F)c(F)cc21)C1CCOC1 (stereo partly drawn) [Example 611, 2-(2-((3R,4R)-3-amino-4-fluoropiperidin-1-yl)-5,6-difluoro-1H-benzo[d]imidazol-1-yl)-N-methyl-N-(tetrahydrofuran-3-yl)acetamide] | 22.4 nM
CN(C)C(=O)Cn1c(N2CC[C@@H](F)[C@H](N)C2)nc2ccc(C(F)(F)F)cc21 [Example 563, 2-(2-((3R,4R)-3-amino-4-fluoropiperidin-1-yl)-6-(trifluoromethyl)-1H-benzo[d]imidazol-1-yl)-N,N-dimethylacetamide] | 21.6 nM
N[C@@H]1CN(c2nc3cc(F)c(F)cc3n2[C@@H]2CCN(C3CCOCC3)C2=O)CC[C@H]1F [Example 550, (R)-3-(2-((3R,4R)-3-amino-4-fluoropiperidin-1-yl)-5,6-difluoro-1H-benzo[d]imidazol-1-yl)-1-(tetrahydro-2H-pyran-4-yl)pyrrolidin-2-one] | > 3750 nM
N#Cc1ccc(Cn2c(N3CC[C@@H](F)[C@H](N)C3)nc3ncc(C(F)(F)F)cc32)nc1 [Example 499, 6-((2-((3R,4R)-3-amino-4-fluoropiperidin-1-yl)-6-(trifluoromethyl)-1H-imidazo[4,5-b]pyridin-1-yl)methyl)nicotinonitrile] | 2.58 nM
CCN(CC1CCN(C(C)=O)C1)C(=O)Cn1c(N2CC[C@@H](F)[C@H](N)C2)nc2cc(F)c(F)cc21 (mixture of isomers) [Example 650, N-((1-acetylpyrrolidin-3-yl)methyl)-2-(2-((3R,4R)-3-amino-4-fluoropiperidin-1-yl)-5,6-difluoro-1H-benzo[d]imidazol-1-yl)-N-ethylacetamide] | > 1750 nM
COc1ccc2nc(N3CC[C@H](F)[C@H](N)C3)n(Cc3ccc(C#N)cn3)c2c1 [Example 147, 6-((2-((3R,4S)-3-amino-4-fluoropiperidin-1-yl)-6-methoxy-1H-benzo[d]imidazol-1-yl)methyl)nicotinonitrile hydrochloride] | 0.433 nM
C[C@H](CC#N)NC(=O)Cn1c(N2CC[C@@H](F)[C@H](N)C2)nc2ccc(F)cc21 [Example 670, 2-(2-((3R,4R)-3-amino-4-fluoropiperidin-1-yl)-6-fluoro-1H-benzo[d]imidazol-1-yl)-N-((R)-1-cyanopropan-2-yl)acetamide] | 1120 nM
N#Cc1ccc2c(c1)CC[C@H]2n1c(N2CCC[C@H](N)C2)nc2ccccc21 [Example 423, (R)-1-(2-((S)-3-aminopiperidin-1-yl)-1H-benzo[d]imidazol-1-yl)-2,3-dihydro-1H-indene-5-carbonitrile] | 151 nM
N[C@@H]1CCCN(c2nc3ccccc3n2Cc2ccc(F)cc2F)C1 [Example 389, (R)-1-(1-(2,4-difluorobenzyl)-1H-benzo[d]imidazol-2-yl)piperidin-3-amine] | 4580 nM
Cc1nc(-c2ccccc2)sc1Cn1c(N2CC[C@@H](F)[C@H](N)C2)nc2ccc(F)cc21 [Example 585, (3R,4R)-4-fluoro-1-(6-fluoro-1-((4-methyl-2-phenylthiazol-5-yl)methyl)-1H-benzo[d]imidazol-2-yl)piperidin-3-amine] | 579 nM
NC(=O)C1CCCCN1C(=O)Cn1c(N2CC[C@@H](F)[C@H](N)C2)nc2cc(F)c(F)cc21 (stereo partly shown) [Example 521] | 757 nM
N[C@@H]1CN(c2nc3cc(F)c(F)cc3n2Cc2ccc(F)c(F)c2)CC[C@H]1F [Example 357, (3R,4R)-1-(1-(3,4-difluorobenzyl)-5,6-difluoro-1H-benzimidazol-2-yl)-4-fluoro-3-piperidinamine] | 24.5 nM
N#Cc1ccc(Cn2c(N3CC[C@@H](F)[C@H](N)C3)nc3cc(C(F)(F)F)c(Cl)cc32)nc1 [Example 126, 6-((2-((3R,4R)-3-amino-4-fluoro-1-piperidinyl)-6-chloro-5-(trifluoromethyl)-1H-benzimidazol-1-yl)methyl)-3-pyridinecarbonitrile] | 0.48 nM
N#Cc1ccc(Cn2c(N3CCC(F)(F)[C@H](N)C3)nc3ccccc32)nc1 [Example 212, (R)-6-((2-(3-amino-4,4-difluoropiperidin-1-yl)-1H-benzo[d]imidazol-1-yl)methyl)nicotinonitrile hydrochloride] | 3.5 nM
